# According to US20170314074A1, “LPA-ASSOCIATED PROTEIN AND RNA EXPRESSION” (Intermune, Inc., priority 2014, published 2017):
# Tested on: normal human lung fibroblasts, human bronchial epithelial cells, and human pulmonary alveolar epithelial cells
# Test: Secreted protein expression after LPA induction, aptamer-based proteomic platform (SomaLogic, 1129 proteins)
# Type: cell-based
# Details: 24 hours
# Method: Changes in gene expression after 3 hours of LPA induction were profiled on Affymetrix Human Gene ST 2.0 microarrays; differentially expressed genes identified by ANOVA with FDR <0.05 and fold-change >1.2. Process networks associated with differentially expressed genes were defined using MetaCore. Changes in secreted protein expression after 24 hours of LPA induction were profiled on an aptamer-based proteomic platform (1129 proteins); differentially expressed proteins identified by t-test.
# Treatment of cells with LPA, isolation supernatant, analysis of secreted protein expression using soma panel was performed as follows: Supernatant was collected from in vitro cultures of normal human lung fibroblasts, human bronchial epithelial cells, and human pulmonary alveolar epithelial cells treated for 24 hours with LPA and/or LPAR1 inhibitor. Each treatment condition was assayed in triplicate. 1129 proteins were profiled using a broad aptamer-based proteomic platform (SomaLogic, Colo., US). Briefly, the technology uses DNA aptamers containing chemically modified nucleotides as highly specific protein binding reagents in a multiplexed assay that transforms the quantity of each targeted protein into a corresponding quantify of the aptamer. Protein quantities are then detected on a microarray platform and recorded as Relative Fluorescence Units (RFU).
# In Tables 1-5 The differentially expressed secreted proteins set forth in Tables 1, 2, and 5 and the differentially expressed mRNAs set forth in Table 3 and 4 were identified by visual inspection of individual dot-plots.
# For the gene and protein expression analysis primary fibroblasts (NHLF product #CC-2512 from Lonza group LTD) and primary epithelial cells (NHBE Product #CC-2540 from Lonza; HPAEpiC Product #3200 from Sciencell (USA, California)) were cultured as recommended by the manufacturer, except they were cultured on collagen coated plates. As part of the induction protocol cells were starved overnight in low (0.2 or 0.1% serum) or no serum (0%), prior to stimulation with LPA.
substance,measurement,value
lysophosphatidic acid [LPA],"effect of LPA, 41 (EPB41)",up
same,"effect of LPA, ADAM 9 (ADAM9)",up
same,"effect of LPA, ALCAM (ALCAM)",up
same,"effect of LPA, ANGL4 (ANGPTL4)",up
same,"effect of LPA, AREG (AREG)",up
same,"effect of LPA, ARTS1 (ERAP1)",up
same,"effect of LPA, ASM3A (SMPDL3A)",up
same,"effect of LPA, ATS1 (ADAMTS1)",down
same,"effect of LPA, Activin A (INHBA)",up
same,"effect of LPA, Aminoacylase-1 (ACY1)",up
same,"effect of LPA, Angiogenin (ANG)",up
same,"effect of LPA, Angiopoietin-1 (ANGPT1)",up
same,"effect of LPA, Angiopoietin-2 (ANGPT2)",down
same,"effect of LPA, Angiostatin (PLG)",down
same,"effect of LPA, Apo E2 (APOE)",down
same,"effect of LPA, Apo E3 (APOE)",down
same,"effect of LPA, B7-H1 (CD274)",up
same,"effect of LPA, BASI (BSG)",up
same,"effect of LPA, BFL1 (BCL2A1)",up
same,"effect of LPA, BGH3 (TGFBI)",up
same,"effect of LPA, BGN (BGN)",up
same,"effect of LPA, BSSP4 (PRSS22)",up
same,"effect of LPA, Bone proteoglycan II (DCN)",up
same,"effect of LPA, CAPG (CAPG)",up
same,"effect of LPA, CATZ (CTSZ)",up
same,"effect of LPA, CK2-A1:B (CSNK2A1 CSNK2B)",up
same,"effect of LPA, COMMD7 (COMMD7)",up
same,"effect of LPA, CRDL1 (CHRDL1)",up
same,"effect of LPA, CTAP-III (PPBP)",up
same,"effect of LPA, Caspase-3 (CASP3)",up
same,"effect of LPA, Cathepsin A (CTSA)",up
same,"effect of LPA, Cathepsin H (CTSH)",up
same,"effect of LPA, Cathepsin S (CTSS)",up
same,"effect of LPA, Cathepsin V (CTSL2)",up
same,"effect of LPA, Coagulation Factor Xa (F10)",down
same,"effect of LPA, Cofilin-1 (CFL1)",up
same,"effect of LPA, Cyclophilin A (PPIA)",up
same,"effect of LPA, Cystatin M (CST6)",up
same,"effect of LPA, DAF (CD55)",up
same,"effect of LPA, DBNL (DBNL)",up
same,"effect of LPA, DERM (DPT)",down
same,"effect of LPA, DKK1 (DKK1)",up
same,"effect of LPA, DKK3 (DKK3)",up
same,"effect of LPA, DPP2 (DPP7)",up
same,"effect of LPA, DcR3 (TNFRSF6B)",up
same,"effect of LPA, Discoidin domain receptor 2 (DDR2)",up
same,"effect of LPA, Dkk-4 (DKK4)",up
same,"effect of LPA, EMR2 (EMR2)",up
same,"effect of LPA, ENA-78 (CXCL5)",up
same,"effect of LPA, EPHA3 (EPHA3)",up
same,"effect of LPA, EPI (EREG)",up
same,"effect of LPA, Elafin (PI3)",up
same,"effect of LPA, Endocan (ESM1)",up
same,"effect of LPA, Endothelin-converting enzyme 1 (ECE1)",up
same,"effect of LPA, Eotaxin (CCL11)",up
same,"effect of LPA, EphB4 (EPHB4)",up
same,"effect of LPA, Ephrin-A5 (EFNA5)",up
same,"effect of LPA, Ephrin-B3 (EFNB3)",up
same,"effect of LPA, Epithelial cell kinase (EPHA2)",up
same,"effect of LPA, FCAR (FCAR)",down
same,"effect of LPA, FGF7 (FGF7)",up
same,"effect of LPA, FGF-18 (FGF18)",down
same,"effect of LPA, FGF-20 (FGF20)",up
same,"effect of LPA, FST (FST)",up
same,"effect of LPA, FSTL3 (FSTL3)",up
same,"effect of LPA, Flt-3 (FLT3)",up
same,"effect of LPA, G-CSF (CSF3)",up
same,"effect of LPA, GAPDH liver (GAPDH)",up
same,"effect of LPA, GCP-2 (CXCL6)",up
same,"effect of LPA, GDF-9 (GDF9)",down
same,"effect of LPA, GREM1 (GREM1)",up
same,"effect of LPA, GRN (GRN)",up
same,"effect of LPA, GV (PLA2G5)",up
same,"effect of LPA, Galectin-3 (LGALS3)",up
same,"effect of LPA, Gro-a (CXCL1)",up
same,"effect of LPA, Gro-b/g (CXCL3 CXCL2)",up
same,"effect of LPA, HGF (HGF)",up
same,"effect of LPA, IDE (IDE)",up
same,"effect of LPA, IGF-I sR (IGF1R)",up
same,"effect of LPA, IGF-II receptor (IGF2R)",up
same,"effect of LPA, IGFBP-2 (IGFBP2)",down
same,"effect of LPA, IGFBP-3 (IGFBP3)",up
same,"effect of LPA, IGFBP-7 (IGFBP7)",up
same,"effect of LPA, IL-1 R4 (IL1RL1)",up
same,"effect of LPA, IL-6 (IL6)",up
same,"effect of LPA, IL-6 sRa (IL6R)",up
